Measurements: ChEMBL document CHEMBL1134187, “Synthesis and antitumor evaluation of novel monoindolyl-4-trifluoromethylpyridines and bisindolyl-4-trifluoromethylpyridines” (Bioorg Med Chem Lett, 2001)
pIC50: −log10 of the molar value.

Experiments:
A549 [1] = assay: Inhibition of proliferation of A549 cells at concentration of 10 uM was determined; assay type: functional; details: Homo sapiens
P388 [2] = assay: Inhibition of proliferation of […] at concentration of 1 uM was determined; assay type: functional; details: Mus musculus
A549 [3] = assay: Concentration for in vitro cytotoxicity against A-549 human lung tumor cells; assay type: functional, cell-based
P388 [4] = assay: Inhibition of proliferation of […] at concentration of 100 uM was determined; assay type: functional; details: Mus musculus
A549 [5] = assay: Inhibition of proliferation of A549 cells at concentration of 0.1 uM was determined; assay type: functional; details: Homo sapiens
A549 [6] = assay: Inhibition of proliferation of A549 cells at concentration of 100 uM was determined; assay type: functional; details: Homo sapiens
P388 [7] = assay: Inhibition of proliferation of […] at concentration of 10 uM was determined; assay type: functional; details: Mus musculus
A549 [8] = assay: Inhibition of proliferation of A549 cells at concentration of 1 uM was determined; assay type: functional; details: Homo sapiens
P388 [9] = assay: Inhibition of proliferation of […] at concentration of 0.1 uM was determined; assay type: functional; details: Mus musculus
P388 [10] = assay: Concentration for in vitro cytotoxicity against murine P388 leukemia cells; assay type: functional, cell-based; details: Mus musculus

Structure (SMILES) | inhibition at 10 µM (A549 [1]) | inhibition at 1 µM (P388 [2]) | pIC50 (A549 [3]) | inhibition at 100 µM (P388 [4]) | inhibition at 0.1 µM (A549 [5]) | inhibition at 100 µM (A549 [6]) | inhibition at 10 µM (P388 [7]) | inhibition at 1 µM (A549 [8]) | inhibition at 0.1 µM (P388 [9]) | pIC50 (P388 [10])
Cc1ccc(S(=O)(=O)n2cc(-c3cc(C(F)(F)F)cc(-c4cn(S(=O)(=O)c5ccc(C)cc5)c5cc(Br)ccc45)n3)c3ccc(Br)cc32)cc1 | 32% | 10% | < 4.00 | 8.9% | 25.8% | 49.2% | 15.1% | 30.7% | 8.1% | < 4.00
Cc1ccc(S(=O)(=O)n2cc(-c3cc(C(F)(F)F)ccn3)c3cc(OCc4ccccc4)ccc32)cc1 | 9.9% | – | < 4.00 | 2.2% | 16.9% | 35.9% | – | 23.2% | – | < 4.00
Cc1ccc(S(=O)(=O)n2cc(-c3cc(C(F)(F)F)c(C#N)c(-c4cn(S(=O)(=O)c5ccc(C)cc5)c5ccc(Br)cc45)n3)c3cc(Br)ccc32)cc1 | 9.6% | 3.7% | 4.11 | 8.2% | 9.8% | 70.6% | – | 17.4% | – | < 4.00
COc1ccc2c(-c3cc(C(F)(F)F)cc(-c4cn(S(=O)(=O)c5ccc(C)cc5)c5cc(OC)ccc45)n3)cn(S(=O)(=O)c3ccc(C)cc3)c2c1 | 28.8% | – | 5.77 | 99.9% | 1.7% | 97.1% | 92.8% | 35.5% | – | 5.37
Cc1ccc(S(=O)(=O)n2cc(-c3cc(C(F)(F)F)c(C#N)c(-c4cn(S(=O)(=O)c5ccc(C)cc5)c5cc(Br)ccc45)n3)c3ccc(Br)cc32)cc1 | 27.6% | 1.7% | < 4.00 | 1.3% | 23.8% | 48.1% | 5.7% | 18.8% | 3.1% | < 4.00
Cc1ccc(S(=O)(=O)n2cc(-c3cc(C(F)(F)F)ccn3)c3ccccc32)cc1 | 35% | 10.5% | 4.60 | 49.9% | 25% | 68.4% | – | 23.8% | – | < 4.00
COc1ccc2c(c1)c(-c1cc(C(F)(F)F)ccn1)cn2S(=O)(=O)c1ccc(C)cc1 | 14.1% | – | < 4.00 | 15.6% | 16.9% | 51.8% | – | 23.2% | – | < 4.00
Cc1ccc(S(=O)(=O)n2cc(-c3cc(C(F)(F)F)cc(-c4cn(S(=O)(=O)c5ccc(C)cc5)c5ccccc45)n3)c3ccccc32)cc1 | 27.6% | 20.9% | 4.64 | 14.7% | 37.5% | 69.3% | 23.5% | 36.7% | 15.7% | < 4.00
COc1ccc2c(c1)c(-c1cc(C(F)(F)F)cc(-c3cn(S(=O)(=O)c4ccc(C)cc4)c4ccc(OC)cc34)n1)cn2S(=O)(=O)c1ccc(C)cc1 | 22.2% | 7% | < 4.00 | 13.8% | 16.7% | 41.7% | 5% | 7.1% | 9.3% | < 4.00
COc1ccc2c(c1)c(-c1cc(C(F)(F)F)c(C#N)c(-c3cn(S(=O)(=O)c4ccc(C)cc4)c4ccc(OC)cc34)n1)cn2S(=O)(=O)c1ccc(C)cc1 | 25.2% | – | < 4.00 | – | 25% | 17.7% | 3.5% | 24.4% | 1.7% | < 4.00
COc1ccc2c(-c3cc(C(F)(F)F)c(C#N)c(-c4cn(S(=O)(=O)c5ccc(C)cc5)c5cc(OC)ccc45)n3)cn(S(=O)(=O)c3ccc(C)cc3)c2c1 | 13.3% | 9.1% | < 4.00 | 3.8% | 33% | 21.2% | 10.1% | 26.7% | 5.1% | < 4.00
Cc1ccc(S(=O)(=O)n2cc(-c3cc(C(F)(F)F)ccn3)c3cc(Br)ccc32)cc1 | 20.6% | 17.8% | 5.39 | 32.6% | 38.9% | 98% | 21.9% | 32.8% | 9.7% | < 4.00
